Experimental findings from patent US20240174680A1, “CDK2 INHIBITORS AND METHODS OF USING THE SAME” (Cedilla Therapeutics, Inc., priority 2021, published 2024) are described below.

This assay concerns the target CDK2/Cyclin E1 (Homo sapiens, UniProt P24941). The assay is described as follows: CDK2/Cyclin E1 Caliper LabChip EZ Reader mobility shift assay. Type of assay: biochemical. Also noted: purchased Eurofins 14-475. The conditions noted are these: read-out: Caliper Assay (CDK2/CCNE1): IC50. The method in brief: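 Substrate-to-product conversion of fluorescent peptide (1.5 μM final) read by capillary electrophoresis after 100 min reaction, EDTA-quenched. Enzyme (2.5 nM final) and ATP (100 μM final) were preincubated 30 min with inhibitor dilutions first. % activity vs concentration fitted four-parameter for IC50.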

On to `CNC(=O)[C@@H](NC(=O)[C@@H]1CN(C(=O)c2cnn(CC3CCOCC3)c2)CC12CN(C(=O)[C@H]1CC1(C)C)C2)[C@@H](C)OCC1CCCCC1` [I-121A], for which the IC50 is 10 to 100 nM.
Turning to `CNC(=O)[C@@H](NC(=O)[C@H]1CN(C(=O)c2cnn(CC3CCOCC3)c2)CC12CN(C(=O)[C@H]1CC1(C)C)C2)[C@@H](C)OCC1CCCCC1` [I-121B], the IC50 is 1000 to 10000 nM.
Next, `COCCNC(=O)[C@@H]1CN(C(=O)c2cnn(Cc3ccccc3)c2)CC12CN(C(=O)[C@H]1CC1(C)C)C2` [I-122A]: over 10000 nM; `COCCNC(=O)[C@H]1CN(C(=O)c2cnn(Cc3ccccc3)c2)CC12CN(C(=O)[C@H]1CC1(C)C)C2` [I-122B]: over 10000 nM.
Next, `CNC(=O)[C@@H](NC(=O)[C@@H]1CN(C(=O)c2cnn(Cc3ccccc3)c2)CC12CN(C(=O)[C@H]1CC1(C)C)C2)[C@@H](C)OCC1CCCCC1` [I-123A, (S)-6-(1-benzyl-1H-pyrazole-4-carbonyl)-N-((2S,3R)-3-(cyclohexylmethoxy)-1-(methylamino)-1-oxobutan-2-yl)-2-((S)-2,2-dimethylcyclopropane-1-carbonyl)-2,6-diazaspiro[3.4]octane-8-carboxamide]: at most 10 nM.
For `CNC(=O)[C@@H](NC(=O)[C@H]1CN(C(=O)c2cnn(Cc3ccccc3)c2)CC12CN(C(=O)[C@H]1CC1(C)C)C2)[C@@H](C)OCC1CCCCC1` [I-123B] the value was 100 to 1000 nM.
For the compound `C[C@@H]1C[C@H](C)CN(C(=O)[C@@H](NC(=O)C2CN(C(=O)c3cn[nH]c3)CC23CN(C(=O)[C@H]2CC2(C)C)C3)[C@@H](C)OCc2ccccc2)C1` (stereo partly shown) [I-124], the IC50 fell in the range of 100 to 1000 nM.
For `CNC(=O)[C@@H](NC(=O)[C@@H]1CN(C(=O)c2cnn(Cc3ccccc3)c2)CC12CN(C(=O)[C@H]1CC1(C)C)C2)[C@@H](C)OCCC1CCCCC1` [I-125A] the value was at most 10 nM; for `CNC(=O)[C@@H](NC(=O)[C@H]1CN(C(=O)c2cnn(Cc3ccccc3)c2)CC12CN(C(=O)[C@H]1CC1(C)C)C2)[C@@H](C)OCCC1CCCCC1` [I-125B], 10 to 100 nM; for `COc1cccc(CNC(=O)[C@@H]2CN(C(=O)c3cnn(Cc4ccccc4)c3)CC23CN(C(=O)[C@H]2CC2(C)C)C3)n1` [I-126A], over 10000 nM.
Next, `COc1cccc(CNC(=O)[C@H]2CN(C(=O)c3cnn(Cc4ccccc4)c3)CC23CN(C(=O)[C@H]2CC2(C)C)C3)n1` [I-126B]: over 10000 nM; `C[C@H](NC(=O)[C@@H]1CN(C(=O)c2cnn(Cc3ccccc3)c2)CC12CN(C(=O)[C@H]1CC1(C)C)C2)c1cccc(F)c1` [I-127A]: 1000 to 10000 nM.
Next, `C[C@H](NC(=O)[C@H]1CN(C(=O)c2cnn(Cc3ccccc3)c2)CC12CN(C(=O)[C@H]1CC1(C)C)C2)c1cccc(F)c1` [I-127B]: over 10000 nM.
For `C[C@@H](NC(=O)[C@@H]1CN(C(=O)c2cnn(Cc3ccccc3)c2)CC12CN(C(=O)[C@H]1CC1(C)C)C2)c1cccc(F)c1` [I-128A], the IC50 is over 10000 nM.
`C[C@@H](NC(=O)[C@H]1CN(C(=O)c2cnn(Cc3ccccc3)c2)CC12CN(C(=O)[C@H]1CC1(C)C)C2)c1cccc(F)c1` [I-128B]: the IC50 was over 10000 nM.
Next, `CNC(=O)[C@@H](NC(=O)[C@@H]1CN(C(=O)c2cncs2)CC12CN(C(=O)[C@H]1CC1(C)C)C2)[C@@H](C)OCC1CCCCC1` [I-129A]: 10 to 100 nM.
Take `CNC(=O)[C@@H](NC(=O)[C@H]1CN(C(=O)c2cncs2)CC12CN(C(=O)[C@H]1CC1(C)C)C2)[C@@H](C)OCC1CCCCC1` [I-129B]: the IC50 was 1000 to 10000 nM.
Next, `CNC(=O)[C@@H](NC(=O)[C@@H]1CN(C(=O)c2cnn(Cc3ccccc3)c2)CC12CN(C(=O)[C@H]1CC1(C)C)C2)[C@@H](C)OCC(C)(C)C` [I-130A]: 10 to 100 nM; `CNC(=O)[C@@H](NC(=O)[C@H]1CN(C(=O)c2cnn(Cc3ccccc3)c2)CC12CN(C(=O)[C@H]1CC1(C)C)C2)[C@@H](C)OCC(C)(C)C` [I-130B]: 100 to 1000 nM; `CO[C@H]1COCC[C@@H]1NC(=O)[C@@H]1CN(C(=O)c2cnn(Cc3ccccc3)c2)CC12CN(C(=O)[C@H]1CC1(C)C)C2` [I-131A]: over 10000 nM.
For `CO[C@H]1COCC[C@@H]1NC(=O)[C@H]1CN(C(=O)c2cnn(Cc3ccccc3)c2)CC12CN(C(=O)[C@H]1CC1(C)C)C2` [I-131B] the value was over 10000 nM; for `C[C@@H](OCC1CCCCC1)[C@H](NC(=O)[C@@H]1CN(C(=O)c2cnn(CC(F)(F)F)c2)CC12CN(C(=O)[C@H]1CC1(C)C)C2)C(=O)N1CCCCC1` [I-132], 10 to 100 nM.
Next, `CC1(C)C[C@@H]1C(=O)N1CC2(CN(C(=O)c3cnn(Cc4ccccc4)c3)C[C@H]2C(=O)N[C@H]2CCc3cc(Cl)ccc32)C1` [I-133A]: 1000 to 10000 nM.
With `CC1(C)C[C@@H]1C(=O)N1CC2(CN(C(=O)c3cnn(Cc4ccccc4)c3)C[C@@H]2C(=O)N[C@H]2CCc3cc(Cl)ccc32)C1` [I-133B], the IC50 lay in the range of 1000 to 10000 nM.
Next, `CO[C@H]1COCC[C@H]1NC(=O)[C@@H]1CN(C(=O)c2cnn(Cc3ccccc3)c2)CC12CN(C(=O)[C@H]1CC1(C)C)C2` [I-134A]: over 10000 nM; `CO[C@H]1COCC[C@H]1NC(=O)[C@H]1CN(C(=O)c2cnn(Cc3ccccc3)c2)CC12CN(C(=O)[C@H]1CC1(C)C)C2` [I-134B]: over 10000 nM.
Regarding `C[C@@H](OCC1CCCCC1)[C@@H](CO)NC(=O)[C@@H]1CN(C(=O)c2cnn(Cc3ccccc3)c2)CC12CN(C(=O)[C@H]1CC1(C)C)C2` [I-135A], the IC50 is 10 to 100 nM.
Next, `C[C@@H](OCC1CCCCC1)[C@@H](CO)NC(=O)[C@H]1CN(C(=O)c2cnn(Cc3ccccc3)c2)CC12CN(C(=O)[C@H]1CC1(C)C)C2` [I-135B]: 100 to 1000 nM.
Consider `CNC(=O)[C@@H](NC(=O)[C@@H]1CN(C(=O)c2cnn(Cc3ccc(F)cc3)c2)CC12CN(C(=O)[C@H]1CC1(C)C)C2)[C@@H](C)OCc1ccc(F)cc1` [I-136A], for which the IC50 is 10 to 100 nM.
For `CNC(=O)[C@@H](NC(=O)[C@H]1CN(C(=O)c2cnn(Cc3ccc(F)cc3)c2)CC12CN(C(=O)[C@H]1CC1(C)C)C2)[C@@H](C)OCc1ccc(F)cc1` [I-136B] the value was 100 to 1000 nM; for `CNC(=O)[C@@H](NC(=O)[C@@H]1CN(C(=O)c2cnn(Cc3ccccc3)c2)CC12CN(C(=O)[C@H]1CC1(C)C)C2)[C@@H](C)OCC(C)C` [I-137A], 100 to 1000 nM; for `CNC(=O)[C@@H](NC(=O)[C@H]1CN(C(=O)c2cnn(Cc3ccccc3)c2)CC12CN(C(=O)[C@H]1CC1(C)C)C2)[C@@H](C)OCC(C)C` [I-137B], 1000 to 10000 nM.
Next, `C[C@@H](OCC1CCCCC1)[C@H](NC(=O)C1CN(C(=O)c2cncs2)CC12CN(C(=O)[C@H]1CC1(C)C)C2)C(=O)N1CCOCC1` (stereo partly shown) [I-138]: at most 10 nM; `CC1(C)C[C@@H]1C(=O)N1CC2(CN(C(=O)c3cnn(Cc4ccccc4)c3)C[C@H]2C(=O)Nc2ccc(Cc3ccccc3)nc2)C1` [I-139, (S)-6-(1-benzyl-1H-pyrazole-4-carbonyl)-N-(6-benzylpyridin-3-yl)-2-((S)-2,2-dimethylcyclopropane-1-carbonyl)-2,6-diazaspiro[3.4]octane-8-carboxamide]: 100 to 1000 nM.
Next, `CC1(C)C[C@@H]1C(=O)N1CC2(CN(C(=O)c3cnn(Cc4ccccc4)c3)C[C@H]2C(=O)N[C@H]2C[C@@H]2c2cccc(Cl)c2)C1` [I-140A]: 100 to 1000 nM.
Regarding `CC1(C)C[C@@H]1C(=O)N1CC2(CN(C(=O)c3cnn(Cc4ccccc4)c3)C[C@@H]2C(=O)N[C@H]2C[C@@H]2c2cccc(Cl)c2)C1` [I-140B], the IC50 was over 10000 nM.
In the case of `CNC(=O)[C@@H](NC(=O)[C@@H]1CN(C(=O)c2cnn(Cc3ccccc3)c2)CC12CN(C(=O)[C@H]1CC1(C)C)C2)[C@@H](C)OCC1CCC(C(F)(F)F)CC1` (stereo partly shown) [I-141A], the IC50 was 10 to 100 nM.
With `CNC(=O)[C@@H](NC(=O)[C@H]1CN(C(=O)c2cnn(Cc3ccccc3)c2)CC12CN(C(=O)[C@H]1CC1(C)C)C2)[C@@H](C)OCC1CCC(C(F)(F)F)CC1` (stereo partly shown) [I-141B], the IC50 lay within 100 to 1000 nM.
For `COC(=O)C1(NC(=O)[C@H]2CN(C(=O)c3cnn(Cc4ccccc4)c3)CC23CN(C(=O)[C@H]2CC2(C)C)C3)COC1` [I-142A] the value was over 10000 nM.
Regarding `COC(=O)C1(NC(=O)[C@@H]2CN(C(=O)c3cnn(Cc4ccccc4)c3)CC23CN(C(=O)[C@H]2CC2(C)C)C3)COC1` [I-142B], the IC50 is over 10000 nM.
For `CNC(=O)[C@@H](NC(=O)[C@H]1CN(Cc2n[nH]c3ccccc23)CC12CN(C(=O)[C@H]1CC1(C)C)C2)[C@@H](C)OCc1ccccc1` [I-143] the value was over 10000 nM.
Take `CNC(=O)[C@@H](NC(=O)[C@@H]1CN(C(=O)c2cnn(Cc3ccccc3)c2)CC12CN(C(=O)[C@H]1CC1(C)C)C2)[C@@H](C)OCC1CCC1` [I-144A]: the IC50 lay within 10 to 100 nM.
Next, `CNC(=O)[C@@H](NC(=O)[C@H]1CN(C(=O)c2cnn(Cc3ccccc3)c2)CC12CN(C(=O)[C@H]1CC1(C)C)C2)[C@@H](C)OCC1CCC1` [I-144B]: 1000 to 10000 nM; `CNC(=O)[C@@H](NC(=O)[C@@H]1CN(C(=O)c2cnc(COC)s2)CC12CN(C(=O)[C@H]1CC1(C)C)C2)[C@@H](C)OCC1CCCCC1` [I-145A]: 10 to 100 nM.
As to `CNC(=O)[C@@H](NC(=O)[C@H]1CN(C(=O)c2cnc(COC)s2)CC12CN(C(=O)[C@H]1CC1(C)C)C2)[C@@H](C)OCC1CCCCC1` [I-145B], the IC50 lay in the range of 1000 to 10000 nM.
`CNC(=O)[C@@H](NC(=O)[C@H]1CN(C(=O)c2nccs2)CC12CN(C(=O)[C@H]1CC1(C)C)C2)[C@@H](C)OCC1CCCCC1` [I-146]: the IC50 is over 10000 nM.
For `COC(=O)c1ccc(C2CCN(C(=O)[C@@H](NC(=O)[C@@H]3CN(C(=O)c4cnn(Cc5ccccc5)c4)CC34CN(C(=O)[C@H]3CC3(C)C)C4)[C@@H](C)OCC3CCCCC3)CC2)cc1` [I-147] the value was at most 10 nM.
`CO[C@H]1COCC[C@@H]1NC(=O)[C@@H]1CN(C(=O)c2cnn(Cc3ccccc3)c2)CC12CN(C(=O)[C@H]1CC1(C)C)C2` [I-148A]: the IC50 was over 10000 nM.
Next, `CO[C@H]1COCC[C@@H]1NC(=O)[C@H]1CN(C(=O)c2cnn(Cc3ccccc3)c2)CC12CN(C(=O)[C@H]1CC1(C)C)C2` [I-148B]: over 10000 nM.
